In patent US20250122191A1, “COMPOUNDS AS BCL-2 INHIBITORS” (Fochon Biosciences, Ltd, priority 2021, published 2025):

Tests used:
Assay type in all cases: cell-based
RS4;11-BCL-2 D103E cells = test: Cell proliferation assay (MTS), RS4;11-BCL-2 D103E engineered cells; conditions: Homo sapiens, 72 h, read-out: RS4, 11 BCL2-D103E IC50
Source text: MTS testing kit was purchased from Promega (Madison, WI, USA). The RPMI-1640, Fetal bovine serum and Penicillin-Streptomycin were purchased from BI (Biological Industries, Beit Haemek, Israel). Puromycin was purchased from Beyotime (shanghai, China). Dimethyl sulfoxide (DMSO) was purchased from Sigma (St. Louis., MO, USA). RS4;11-BCL-2 G101V (Cobioer Lot. #: CBD2021063013P4), RS4;11-BCL-2 D103E (Cobioer Lot. #: CBD2021063013P4), RS4;11-BCL-2 D103Y (Cobioer Lot. #: CBD2022012101P4) and RS4;11-BCL-2 F104L (Cobioer Lot. #: CBD2021063014P4) cells were cultured in RPMI1640 supplemented with 1 ug/mL puromycin, 100 U/mL Penicillin-Streptomycin and 10% FBS.
To investigate whether a compound is able to inhibit the activity of BCL-2 mutation in cells, a mechanism-based assay using engineered cell lines stably overexpressing BCL-2 mutation (RS4;11-BCL-2 G101V, RS4;11-BCL-2 D103E, RS4;11-BCL-2 D103Y, and RS4;11-BCL-2 F104L) was developed. In this assay, the inhibition of BCL-2 mutation was reflected by the inhibition of cell proliferation of engineered RS4;11 cells. Cells were plated into 96-well plates at optimized cell density (RS4;11-BCL-2 G101V: 5000 cells/well; RS4;11-BCL-2 D103E: 7500 cells/well; RS4;11-BCL-2 D103Y: 7500 cells/well; RS4;11-BCL-2 F104L: 5000 cells/well). Plates were incubated at 37° C., with 5% CO2 for 4 h (RS4;11-BCL-2 G101V, RS4;11-BCL-2 F104L) and 24 h (RS4;11-BCL-2 D103E, RS4;11-BCL-2 D103Y), respectively. Compounds were serially diluted and added to the plates with the final concentrations of 10000, 3333.3, 1111.1, 370.4, 123.5, 41.2, 13.7, 4.6 and 1.5 nM. Plates were incubated at 37° C., with 5% CO2 for 120 h (RS4; 11-BCL-2 G101V, RS4; 11-BCL-2 F104L) and 72 h (RS4;11-BCL-2 D103E, RS4;11-BCL-2 D103Y), respectively. 20 μl MTS was added into each well and the plates were incubated at 37° C., with 5% CO2 exactly for 2 h. The absorbance was measured by a microplate reader at 490 nm. IC50 values were calculated using GraphPad Prism 8.0 software.

Toledo cells = test: Cell proliferation assay (MTS), Toledo cells; conditions: Homo sapiens, 72 h
Summary of the method: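 Toledo cells (RPMI-1640, 10% FBS) seeded at 30000 cells/well, rested 4 h, then exposed 72 h at 37 °C, 5% CO2 to compound at nine final concentrations, 1.5–10000 nM. Viability by MTS (2 h), absorbance at 490 nm. IC50 from the concentration-response.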

RS4;11-BCL-2 G101V cells = test: Cell proliferation assay (MTS), RS4;11-BCL-2 G101V engineered cells; conditions: Homo sapiens, 120 h, read-out: RS4, 11 BCL2-G101V IC50
Summary of the method: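 Cells were plated, allowed to settle 4 h (G101V, F104L) or 24 h (D103E, D103Y), and treated with serially diluted compound (10000 down to 1.5 nM). After 120 h or 72 h respectively at 37 °C, MTS was added for 2 h and absorbance at 490 nm gave IC50 values.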

| Compound | IC50 (RS4;11-BCL-2 D103E cells) | IC50 (RS4;11-BCL-2 G101V cells) | IC50 (Toledo cells) |
| --- | --- | --- | --- |
| CCOc1nc2[nH]cc(F)c2cc1Oc1cc(N2CCC3(CC2)CC(N2CCN(Cc4ccc(OC)nc4)C[C@H]2c2ccccc2C(C)C)C3)ccc1C(=O)NS(=O)(=O)c1cnc(NC[C@H]2CC[C@](C)(O)CC2)c([N+](=O)[O-])c1 [Example 120, 2-((6-ethoxy-3-fluoro-1H-pyrrolo[2,3-b]pyridin-5-yl)oxy)-N-((6-((((1r,4r)-4-hydroxy-4-methylcyclohexyl)methyl)amino)-5-nitropyridin-3-yl)sulfonyl)-4-(2-((R)-2-(2-isopropylphenyl)-4-((6-methoxypyridin-3-yl)methyl)piperazin-1-yl)-7-azaspiro[3.5]nonan-7-yl)benzamide] | 1 nM | 1 nM | 1 nM |
| COc1cc(CN2CCN(C3CC4(CCN(c5ccc(C(=O)NS(=O)(=O)c6cnc(NC[C@H]7CC[C@](C)(O)CC7)c([N+](=O)[O-])c6)c(Oc6cnc7[nH]cc(F)c7c6)c5)CC4)C3)[C@H](c3ccccc3C(C)C)C2)ccc1C1CC1 [Example 73, 4-(2-((R)-4-(4-cyclopropyl-3-methoxybenzyl)-2-(2-isopropylphenyl)piperazin-1-yl)-7-azaspiro[3.5]nonan-7-yl)-2-((3-fluoro-1H-pyrrolo[2,3-b]pyridin-5-yl)oxy)-N-((6-((((1r,4r)-4-hydroxy-4-methylcyclohexyl)methyl)amino)-5-nitropyridin-3-yl)sulfonyl)benzamide] | 3 nM | 1 nM | 1 nM |
| COc1nc2[nH]cc(F)c2cc1Oc1cc(N2CCC3(CC2)CC(N2CCN(Cc4cnn(C5CC5)c4)C[C@H]2c2ccccc2C(C)C)C3)ccc1C(=O)NS(=O)(=O)c1cnc(NC[C@H]2CC[C@](C)(O)CC2)c([N+](=O)[O-])c1 [Example 133, 4-(2-((R)-4-((1-cyclopropyl-1H-pyrazol-4-yl)methyl)-2-(2-isopropylphenyl)piperazin-1-yl)-7-azaspiro[3.5]nonan-7-yl)-2-((3-fluoro-6-methoxy-1H-pyrrolo[2,3-b]pyridin-5-yl)oxy)-N-((6-((((1r,4r)-4-hydroxy-4-methylcyclohexyl)methyl)amino)-5-nitropyridin-3-yl)sulfonyl)benzamide] | 2 nM | 1 nM | 1 nM |
| COCCN1CCN(C2CC3(CCN(c4ccc(C(=O)NS(=O)(=O)c5cnc(NC[C@H]6CC[C@](C)(O)CC6)c([N+](=O)[O-])c5)c(Oc5cnc6[nH]cc(F)c6c5)c4)CC3)C2)[C@H](c2ccccc2C(C)C)C1 [Example 203, 2-((3-fluoro-1H-pyrrolo[2,3-b]pyridin-5-yl)oxy)-N-((6-((((1r,4r)-4-hydroxy-4-methylcyclohexyl)methyl)amino)-5-nitropyridin-3-yl)sulfonyl)-4-(2-((R)-2-(2-isopropylphenyl)-4-(2-methoxyethyl)piperazin-1-yl)-7-azaspiro[3.5]nonan-7-yl)benzamide] | 1 nM | 1 nM | 1 nM |
| COCCN1CCN(C2CC3(CCN(c4ccc(C(=O)NS(=O)(=O)c5cnc(NC[C@H]6CC[C@](C)(O)CC6)c([N+](=O)[O-])c5)c(Oc5cc6c(F)c[nH]c6nc5OC)c4)CC3)C2)[C@H](c2ccccc2C(C)C)C1 [Example 129, 2-((3-fluoro-6-methoxy-1H-pyrrolo[2,3-b]pyridin-5-yl)oxy)-N-((6-((((1r,4r)-4-hydroxy-4-methylcyclohexyl)methyl)amino)-5-nitropyridin-3-yl)sulfonyl)-4-(2-((R)-2-(2-isopropylphenyl)-4-(2-methoxyethyl)piperazin-1-yl)-7-azaspiro[3.5]nonan-7-yl)benzamide] | 3 nM | – | 1 nM |

Continued, in another order:

| IC50 (RS4;11-BCL-2 D103E cells) | IC50 (RS4;11-BCL-2 G101V cells) | Compound | IC50 (Toledo cells) |
| --- | --- | --- | --- |
| 1 nM | 1 nM | COc1ccc(CN2CCN(C3CC4(CCN(c5ccc(C(=O)NS(=O)(=O)c6cnc(NC[C@H]7CC[C@](C)(O)CC7)c([N+](=O)[O-])c6)c(Oc6cnc7[nH]cc(F)c7c6)c5)CC4)C3)[C@H](c3ccccc3C(C)C)C2)c2nc(C)oc12 [Example 244, 2-((3-fluoro-1H-pyrrolo[2,3-b]pyridin-5-yl)oxy)-N-((6-((((1r,4r)-4-hydroxy-4-methylcyclohexyl)methyl)amino)-5-nitropyridin-3-yl)sulfonyl)-4-(2-((R)-2-(2-isopropylphenyl)-4-((7-methoxy-2-methylbenzo[d]oxazol-4-yl)methyl)piperazin-1-yl)-7-azaspiro[3.5]nonan-7-yl)benzamide] | 1 nM |
| 1 nM | 1 nM | CC(C)c1ccccc1[C@@H]1CN(Cc2cnn(C3CC3)c2)CCN1C1CC2(CCN(c3ccc(C(=O)NS(=O)(=O)c4cnc(NC[C@H]5CC[C@](C)(O)CC5)c([N+](=O)[O-])c4)c(Oc4cnc5[nH]cc(F)c5c4)c3)CC2)C1 [Example 247, 4-(2-((R)-4-((1-cyclopropyl-1H-pyrazol-4-yl)methyl)-2-(2-isopropylphenyl)piperazin-1-yl)-7-azaspiro[3.5]nonan-7-yl)-2-((3-fluoro-1H-pyrrolo[2,3-b]pyridin-5-yl)oxy)-N-((6-((((1r,4r)-4-hydroxy-4-methylcyclohexyl)methyl)amino)-5-nitropyridin-3-yl)sulfonyl)benzamide] | 1 nM |
| 1 nM | 1 nM | CC(C)c1ccccc1[C@@H]1CN(CC2CCOCC2)CCN1C1CC2(CCN(c3ccc(C(=O)NS(=O)(=O)c4cnc(NC[C@H]5CC[C@](C)(O)CC5)c([N+](=O)[O-])c4)c(Oc4cnc5[nH]cc(F)c5c4)c3)CC2)C1 [Example 318, 2-((3-fluoro-1H-pyrrolo[2,3-b]pyridin-5-yl)oxy)-N-((6-((((1r,4r)-4-hydroxy-4-methylcyclohexyl)methyl)amino)-5-nitropyridin-3-yl)sulfonyl)-4-(2-((R)-2-(2-isopropylphenyl)-4-((tetrahydro-2H-pyran-4-yl)methyl)piperazin-1-yl)-7-azaspiro[3.5]nonan-7-yl)benzamide] | – |
| 1 nM | 1 nM | CC(C)c1ccccc1[C@@H]1CN(C[C@H]2COCCO2)CCN1C1CC2(CCN(c3ccc(C(=O)NS(=O)(=O)c4cnc(NC[C@H]5CC[C@](C)(O)CC5)c([N+](=O)[O-])c4)c(Oc4cnc5[nH]cc(F)c5c4)c3)CC2)C1 [Example 330, 4-(2-((R)-4-(((S)-1,4-dioxan-2-yl)methyl)-2-(2-isopropylphenyl)piperazin-1-yl)-7-azaspiro [3.5]nonan-7-yl)-2-((3-fluoro-1H-pyrrolo[2,3-b]pyridin-5-yl)oxy)-N-((6-((((1r,4r)-4-hydroxy-4-methylcyclohexyl)methyl)amino)-5-nitropyridin-3-yl)sulfonyl)benzamide] | – |
| 1 nM | – | CC(C)c1ccccc1[C@@H]1CN(Cc2ccc(S(C)(=O)=O)cc2)CCN1C1CC2(CCN(c3ccc(C(=O)NS(=O)(=O)c4cnc(NC[C@H]5CC[C@](C)(O)CC5)c([N+](=O)[O-])c4)c(Oc4cnc5[nH]cc(F)c5c4)c3)CC2)C1 [Example 329, 2-((3-fluoro-1H-pyrrolo[2,3-b]pyridin-5-yl)oxy)-N-((6-((((1r,4r)-4-hydroxy-4-methylcyclohexyl)methyl)amino)-5-nitropyridin-3-yl)sulfonyl)-4-(2-((R)-2-(2-isopropylphenyl)-4-(4-(methylsulfonyl)benzyl)piperazin-1-yl)-7-azaspiro[3.5]nonan-7-yl)benzamide] | 1 nM |
